Experimental data from patent US8552176B2 (priority 2010, dated 2013).

Experiments:
[1] = system: A549; test: cells; format: cell-based, human; settings: read-out: GI50 A549 lung (+p53)
[2] = system: H1299; test: cells; format: cell-based, human
[3] = system: NCI-H460; test: cells; format: cell-based, human; settings: read-out: GI50 NCI-H460 lung
[4] = system: HCT-15; test: cells; format: cell-based, human
[5] = system: HT29; test: cells; format: cell-based, human
[6] = system: ten-member panel of human carcinomas; test: cells; format: cell-based
[7] = system: CCRF-CEM; test: NCI 60 Human Tumor Cell Line Anticancer Screen; format: cell-based; settings: Leukemia
[8] = system: HL-60 (TB); format: cell-based, human
[9] = system: MOLT-4; test: NCI 60 Human Tumor Cell Line Anticancer Screen; format: cell-based; settings: MOLT-4, Leukemia
[10] = system: RPMI-8226; test: NCI 60 Human Tumor Cell Line Anticancer Screen; format: cell-based; settings: RPMI-8226, Leukemia
[11] = system: A549/ATCC; test: NCI 60 Human Tumor Cell Line Anticancer Screen; format: cell-based; settings: Non-small cell lung
[12] = system: EKVX; test: NCI 60 Human Tumor Cell Line Anticancer Screen; format: cell-based; settings: Non-small cell lung
[13] = system: NCI-H460; test: NCI 60 Human Tumor Cell Line Anticancer Screen; format: cell-based; settings: NCI-H460, Non-small cell lung
[14] = system: COLO 205; test: NCI 60 Human Tumor Cell Line Anticancer Screen; format: cell-based; settings: COLO 205, Colon
[15] = system: HCC-2998; test: NCI 60 Human Tumor Cell Line Anticancer Screen; format: cell-based; settings: HCC-2998, Colon
[16] = system: KM12; test: NCI 60 Human Tumor Cell Line Anticancer Screen; format: cell-based; settings: KM12, Colon
[17] = system: SF-268; test: NCI 60 Human Tumor Cell Line Anticancer Screen; format: cell-based; settings: SF-268, CNS
[18] = system: SF-295; test: NCI 60 Human Tumor Cell Line Anticancer Screen; format: cell-based; settings: SF-295, CNS
[19] = system: SF-539; test: NCI 60 Human Tumor Cell Line Anticancer Screen; format: cell-based; settings: SF-539, CNS
[20] = system: SNB-19; test: NCI 60 Human Tumor Cell Line Anticancer Screen; format: cell-based; settings: SNB-19, CNS
[21] = system: U251; test: NCI 60 Human Tumor Cell Line Anticancer Screen; format: cell-based; settings: U251, CNS
[22] = system: M14; test: NCI 60 Human Tumor Cell Line Anticancer Screen; format: cell-based; settings: M14, Melanoma
[23] = system: SK-MEL-2; test: NCI 60 Human Tumor Cell Line Anticancer Screen; format: cell-based; settings: SK-MEL-2, Melanoma
[24] = system: SK-MEL-28; test: NCI 60 Human Tumor Cell Line Anticancer Screen; format: cell-based; settings: SK-MEL-28, Melanoma
[25] = system: OVCAR-5; test: NCI 60 Human Tumor Cell Line Anticancer Screen; format: cell-based; settings: OVCAR-5, Ovary
[26] = system: NCI/ADR-RES; test: NCI 60 Human Tumor Cell Line Anticancer Screen; format: cell-based; settings: Ovary
[27] = system: SKOV3; test: NCI 60 Human Tumor Cell Line Anticancer Screen; format: cell-based; settings: SKOV3, Ovary
[28] = system: ACHN; test: NCI 60 Human Tumor Cell Line Anticancer Screen; format: cell-based; settings: Renal
[29] = system: UO-31; test: NCI 60 Human Tumor Cell Line Anticancer Screen; format: cell-based; settings: UO-31, Renal
[30] = system: MDA-MB-468; test: NCI 60 Human Tumor Cell Line Anticancer Screen; format: cell-based; settings: MDA-MB-468, Breast

## CON(CCCCc1ccc(N(CCCl)CCCl)cc1)C1OCC(O)C1O (stereo not shown) [Compound 60]
[1]
  GI50: 1.1 ± 0.1 µM
[2]
  improved activity over the parent drug: 13 fold
[2]; read-out: GI50 H1299 lung (−p53)
  GI50: 0.37 ± 0.04 µM
[3]
  GI50: 1.7 ± 0.4 µM
[4]
  improved activity over the parent drug: 15 fold
[4]; read-out: GI50 HCT-15 colorectal
  GI50: 0.53 ± 0.05 µM
[5]
  improved activity over the parent drug: 12 fold
[5]; read-out: GI50 HT29 colorectal
  GI50: 0.41 ± 0.06 µM
[6]
  improvement in average growth inhibition across the cell panel: 8 fold
  increases in potency compared to 1: up to 15 fold
[7]
  GI50: 2.36 µM
[7]; 10 μM
  Inhibition at 10 μM: 21.19%
[8]
  GI50: 1.88 µM
  Inhibition at 10 μM: 68.31%
[9]
  GI50: 1.22 µM
[9]; 10 μM
  Inhibition at 10 μM: 64.41%
[10]
  Inhibition at 10 μM: 15.94%
[11]
  GI50: 12.2 µM
[11]; 10 μM
  Inhibition at 10 μM: 69.72%
[12]
  GI50: 37.9 µM
[12]; 10 μM
  Inhibition at 10 μM: 91.24%
[13]
  GI50: 3.76 µM
[13]; 10 μM
  Inhibition at 10 μM: 35.80%
[14]
  GI50: 12.7 µM
[14]; 10 μM
  Inhibition at 10 μM: 93.34%
[15]
  Inhibition at 10 μM: 73.29%
[16]
  GI50: 30 µM
[16]; 10 μM
  Inhibition at 10 μM: 97.57%
[17]
  GI50: 5.75 µM
[17]; 10 μM
  Inhibition at 10 μM: 67.83%
[18]
  GI50: 6.47 µM
[18]; 10 μM
  Inhibition at 10 μM: 56.59%
[19]
  GI50: 8.8 µM
[19]; 10 μM
  Inhibition at 10 μM: 51.79%
[20]
  GI50: 33.4 µM
[20]; 10 μM
  Inhibition at 10 μM: 65.81%
[21]
  GI50: 13.1 µM
[21]; 10 μM
  Inhibition at 10 μM: 59.94%
[22]
  GI50: 9.25 µM
[22]; 10 μM
  Inhibition at 10 μM: 67.23%
[23]
  GI50: 20.2 µM
[23]; 10 μM
  Inhibition at 10 μM: 100.16%
[24]
  GI50: 36.5 µM
[24]; 10 μM
  Inhibition at 10 μM: 116.87%
[25]
  Inhibition at 10 μM: 111.11%
[26]
  GI50: 4.61 µM
[26]; 10 μM
  Inhibition at 10 μM: 61.54%
[27]
  GI50: 17.9 µM
[27]; 10 μM
  Inhibition at 10 μM: 72.76%
[28]
  GI50: 4.34 µM
[28]; 10 μM
  Inhibition at 10 μM: 14.27%
[29]
  GI50: 0.856 µM
[29]; 10 μM
  Inhibition at 10 μM: 54.43%
[30]
  GI50: 7.25 µM
[30]; 10 μM
  Inhibition at 10 μM: 43.87%
